Laboratory results as given in the supplement of paper PMC10307832.

Key:
Test in all cases: relative viability (nuclei count vs DMSO), 5 days (fraction); higher = more cells survive
Bosutinib = compound: COc1cc(Nc2c(C#N)cnc3cc(OCCCN4CCN(C)CC4)c(OC)cc23)c(Cl)cc1Cl [Bosutinib]
Outline: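 Five library-drug doses, separated by factors of √10, were pinned into 1536-well plates holding lung cancer cell lines after an overnight stay at 37 °C. Cells were fixed, permeabilised and Hoechst-stained in one step after 5 days without medium change, then imaged at 4×. Viability compares treated-well with vehicle-well nuclei, counted in MetaXpress, as a median across plates. Passing plates had control CV below 25% and at least one doubling.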

Bosutinib + Bortezomib = compound: COc1cc(Nc2c(C#N)cnc3cc(OCCCN4CCN(C)CC4)c(OC)cc23)c(Cl)cc1Cl [Bosutinib] + CC(C)C[C@H](NC(=O)[C@H](Cc1ccccc1)NC(=O)c1cnccn1)B(O)O [Bortezomib] (partner 0.002 µM)
Outline: (§1)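 One day after seeding in 1536-well plates, lung cancer cell lines were dosed by pin tool. Dosing was either single-drug or a fixed anchor-drug dose plus five library-drug doses (not always all listed) in √10 steps. After 5 days, nuclei were stained in one fix-and-stain step and counted on 4× images, and relative viability is the nuclei count of treated wells over that of vehicle wells, given as the median of duplicate plates.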

Bosutinib + Navitoclax = compound: COc1cc(Nc2c(C#N)cnc3cc(OCCCN4CCN(C)CC4)c(OC)cc23)c(Cl)cc1Cl [Bosutinib] + CC1(C)CCC(c2ccc(Cl)cc2)=C(CN2CCN(c3ccc(C(=O)NS(=O)(=O)c4ccc(N[C@H](CCN5CCOCC5)CSc5ccccc5)c(S(=O)(=O)C(F)(F)F)c4)cc3)CC2)C1 [Navitoclax] (partner 0.5 µM)
Outline: as §1

Bosutinib + Foretinib = compound: COc1cc(Nc2c(C#N)cnc3cc(OCCCN4CCN(C)CC4)c(OC)cc23)c(Cl)cc1Cl [Bosutinib] + COc1cc2c(Oc3ccc(NC(=O)C4(C(=O)Nc5ccc(F)cc5)CC4)cc3F)ccnc2cc1OCCCN1CCOCC1 [Foretinib] (partner 0.25 µM)
Outline: as §1

Bosutinib + Lapatinib = compound: COc1cc(Nc2c(C#N)cnc3cc(OCCCN4CCN(C)CC4)c(OC)cc23)c(Cl)cc1Cl [Bosutinib] + CS(=O)(=O)CCNCc1ccc(-c2ccc3ncnc(Nc4ccc(OCc5cccc(F)c5)c(Cl)c4)c3c2)o1 [Lapatinib] (partner 2 µM)
Outline: as §1

Bosutinib + Pictilisib = compound: COc1cc(Nc2c(C#N)cnc3cc(OCCCN4CCN(C)CC4)c(OC)cc23)c(Cl)cc1Cl [Bosutinib] + CS(=O)(=O)N1CCN(Cc2cc3nc(-c4cccc5[nH]ncc45)nc(N4CCOCC4)c3s2)CC1 [Pictilisib] (partner 1 µM)
Outline: as §1

Bosutinib + Crizotinib = compound: COc1cc(Nc2c(C#N)cnc3cc(OCCCN4CCN(C)CC4)c(OC)cc23)c(Cl)cc1Cl [Bosutinib] + C[C@@H](Oc1cc(-c2cnn(C3CCNCC3)c2)cnc1N)c1c(Cl)ccc(F)c1Cl [Crizotinib] (partner 1 µM)
Outline: as §1

Bosutinib + Linsitinib = compound: COc1cc(Nc2c(C#N)cnc3cc(OCCCN4CCN(C)CC4)c(OC)cc23)c(Cl)cc1Cl [Bosutinib] + C[C@]1(O)C[C@@H](c2nc(-c3ccc4ccc(-c5ccccc5)nc4c3)c3c(N)nccn32)C1 [Linsitinib] (partner 1 µM)
Outline: as §1

Bosutinib + Alpelisib = compound: COc1cc(Nc2c(C#N)cnc3cc(OCCCN4CCN(C)CC4)c(OC)cc23)c(Cl)cc1Cl [Bosutinib] + Cc1nc(NC(=O)N2CCC[C@H]2C(N)=O)sc1-c1ccnc(C(C)(C)C(F)(F)F)c1 [Alpelisib] (partner 2 µM)
Outline: as §1

Bosutinib + Olaparib = compound: COc1cc(Nc2c(C#N)cnc3cc(OCCCN4CCN(C)CC4)c(OC)cc23)c(Cl)cc1Cl [Bosutinib] + O=C(c1cc(Cc2n[nH]c(=O)c3ccccc23)ccc1F)N1CCN(C(=O)C2CC2)CC1 [Olaparib] (partner 8 µM)
Outline: as §1

Row | Cell Line | relative viability (Bosutinib; 0.01 µM) | relative viability (Bosutinib; 0.03162 µM) | relative viability (Bosutinib; 0.1 µM) | relative viability (Bosutinib; 1 µM) | relative viability (Bosutinib + Bortezomib; first compound 0.01 µM) | relative viability (Bosutinib + Bortezomib; first compound 0.03162 µM) | relative viability (Bosutinib + Bortezomib; first compound 0.1 µM) | relative viability (Bosutinib + Bortezomib; first compound 1 µM) | relative viability (Bosutinib + Navitoclax; first compound 0.01 µM) | relative viability (Bosutinib + Navitoclax; first compound 0.03162 µM) | relative viability (Bosutinib + Navitoclax; first compound 0.1 µM) | relative viability (Bosutinib + Navitoclax; first compound 1 µM) | relative viability (Bosutinib + Foretinib; first compound 0.01 µM) | relative viability (Bosutinib + Foretinib; first compound 0.03162 µM) | relative viability (Bosutinib + Foretinib; first compound 0.1 µM) | relative viability (Bosutinib + Foretinib; first compound 1 µM) | relative viability (Bosutinib + Lapatinib; first compound 0.01 µM) | relative viability (Bosutinib + Lapatinib; first compound 0.03162 µM) | relative viability (Bosutinib + Lapatinib; first compound 0.1 µM) | relative viability (Bosutinib + Lapatinib; first compound 1 µM) | relative viability (Bosutinib + Pictilisib; first compound 0.01 µM) | relative viability (Bosutinib + Pictilisib; first compound 0.03162 µM) | relative viability (Bosutinib + Pictilisib; first compound 0.1 µM) | relative viability (Bosutinib + Pictilisib; first compound 1 µM) | relative viability (Bosutinib + Crizotinib; first compound 0.01 µM) | relative viability (Bosutinib + Crizotinib; first compound 0.03162 µM) | relative viability (Bosutinib + Crizotinib; first compound 0.1 µM) | relative viability (Bosutinib + Crizotinib; first compound 1 µM) | relative viability (Bosutinib + Linsitinib; first compound 0.01 µM) | relative viability (Bosutinib + Linsitinib; first compound 0.03162 µM) | relative viability (Bosutinib + Linsitinib; first compound 0.1 µM) | relative viability (Bosutinib + Linsitinib; first compound 1 µM) | relative viability (Bosutinib + Alpelisib; first compound 0.01 µM) | relative viability (Bosutinib + Alpelisib; first compound 0.03162 µM) | relative viability (Bosutinib + Alpelisib; first compound 0.1 µM) | relative viability (Bosutinib + Alpelisib; first compound 1 µM) | relative viability (Bosutinib + Olaparib; first compound 0.01 µM) | relative viability (Bosutinib + Olaparib; first compound 0.03162 µM) | relative viability (Bosutinib + Olaparib; first compound 0.1 µM) | relative viability (Bosutinib + Olaparib; first compound 1 µM)
1 | Calu-6 | 1.01 | 1.02 | 0.976 | 0.837 | 1.01 | 0.954 | 1.02 | 0.905 | 0.814 | 0.801 | 0.757 | 0.821 | 0.927 | 0.888 | 0.932 | 0.772 | 1.15 | 1.14 | 1.11 | 0.893 | 0.937 | 0.923 | 0.867 | 0.834 | 0.747 | 0.796 | 0.798 | 0.788 | 1.05 | 0.957 | 0.96 | 0.794 | 0.927 | 1.07 | 0.958 | 0.824 | 0.596 | 0.561 | 0.598 | 0.472
2 | EBC-1 | 1.05 | 0.956 | 0.984 | 0.881 | 0.484 | 0.492 | 0.513 | 0.523 | 0.393 | 0.461 | 0.519 | 0.609 | 0.115 | 0.11 | 0.104 | 0.0985 | 0.216 | 0.221 | 0.187 | 0.204 | 0.347 | 0.463 | 0.404 | 0.358 | 0.199 | 0.185 | 0.183 | 0.191 | 0.93 | 0.906 | 0.937 | 0.916 | 0.787 | 0.798 | 0.833 | 0.736 | 0.693 | 0.737 | 0.659 | 0.658
3 | NCI-H1299 | 1.01 | 1.01 | 1.03 | 1.02 | 1 | 1.06 | 1.01 | 1 | 1.05 | 1.06 | 0.995 | 1.03 | 1.16 | 1.14 | 1.13 | 0.989 | 0.969 | 0.99 | 0.903 | 0.916 | 0.777 | 0.989 | 0.858 | 0.515 | 0.947 | 1 | 0.965 | 0.942 | 1.05 | 0.983 | 1.07 | 0.92 | 1.05 | 1.03 | 1.05 | 1.2 | 1 | 0.982 | 0.994 | 0.96
